Assay results reported in paper PMC5983681, “PIEZO1 Channel Is a Potential Regulator of Synovial Sarcoma Cell-Viability” (International Journal of Molecular Sciences, 2018).

Target: T1, PIEZO1 (SW982 cells) (Homo sapiens, UniProt Q92508)
T1 construct: endogenous full-length channel in native SW982 cells; response lost on PIEZO1 siRNA knockdown
Assay: Fura-2 Ca2+ imaging
Format: cell-based
Details: agonist; SBS with […] Ca2+, pH […]-26 °C; native SW982 cells, […] tested; bound only; read-out: apparent EC50

T1 sequence (Q92508 whole entry): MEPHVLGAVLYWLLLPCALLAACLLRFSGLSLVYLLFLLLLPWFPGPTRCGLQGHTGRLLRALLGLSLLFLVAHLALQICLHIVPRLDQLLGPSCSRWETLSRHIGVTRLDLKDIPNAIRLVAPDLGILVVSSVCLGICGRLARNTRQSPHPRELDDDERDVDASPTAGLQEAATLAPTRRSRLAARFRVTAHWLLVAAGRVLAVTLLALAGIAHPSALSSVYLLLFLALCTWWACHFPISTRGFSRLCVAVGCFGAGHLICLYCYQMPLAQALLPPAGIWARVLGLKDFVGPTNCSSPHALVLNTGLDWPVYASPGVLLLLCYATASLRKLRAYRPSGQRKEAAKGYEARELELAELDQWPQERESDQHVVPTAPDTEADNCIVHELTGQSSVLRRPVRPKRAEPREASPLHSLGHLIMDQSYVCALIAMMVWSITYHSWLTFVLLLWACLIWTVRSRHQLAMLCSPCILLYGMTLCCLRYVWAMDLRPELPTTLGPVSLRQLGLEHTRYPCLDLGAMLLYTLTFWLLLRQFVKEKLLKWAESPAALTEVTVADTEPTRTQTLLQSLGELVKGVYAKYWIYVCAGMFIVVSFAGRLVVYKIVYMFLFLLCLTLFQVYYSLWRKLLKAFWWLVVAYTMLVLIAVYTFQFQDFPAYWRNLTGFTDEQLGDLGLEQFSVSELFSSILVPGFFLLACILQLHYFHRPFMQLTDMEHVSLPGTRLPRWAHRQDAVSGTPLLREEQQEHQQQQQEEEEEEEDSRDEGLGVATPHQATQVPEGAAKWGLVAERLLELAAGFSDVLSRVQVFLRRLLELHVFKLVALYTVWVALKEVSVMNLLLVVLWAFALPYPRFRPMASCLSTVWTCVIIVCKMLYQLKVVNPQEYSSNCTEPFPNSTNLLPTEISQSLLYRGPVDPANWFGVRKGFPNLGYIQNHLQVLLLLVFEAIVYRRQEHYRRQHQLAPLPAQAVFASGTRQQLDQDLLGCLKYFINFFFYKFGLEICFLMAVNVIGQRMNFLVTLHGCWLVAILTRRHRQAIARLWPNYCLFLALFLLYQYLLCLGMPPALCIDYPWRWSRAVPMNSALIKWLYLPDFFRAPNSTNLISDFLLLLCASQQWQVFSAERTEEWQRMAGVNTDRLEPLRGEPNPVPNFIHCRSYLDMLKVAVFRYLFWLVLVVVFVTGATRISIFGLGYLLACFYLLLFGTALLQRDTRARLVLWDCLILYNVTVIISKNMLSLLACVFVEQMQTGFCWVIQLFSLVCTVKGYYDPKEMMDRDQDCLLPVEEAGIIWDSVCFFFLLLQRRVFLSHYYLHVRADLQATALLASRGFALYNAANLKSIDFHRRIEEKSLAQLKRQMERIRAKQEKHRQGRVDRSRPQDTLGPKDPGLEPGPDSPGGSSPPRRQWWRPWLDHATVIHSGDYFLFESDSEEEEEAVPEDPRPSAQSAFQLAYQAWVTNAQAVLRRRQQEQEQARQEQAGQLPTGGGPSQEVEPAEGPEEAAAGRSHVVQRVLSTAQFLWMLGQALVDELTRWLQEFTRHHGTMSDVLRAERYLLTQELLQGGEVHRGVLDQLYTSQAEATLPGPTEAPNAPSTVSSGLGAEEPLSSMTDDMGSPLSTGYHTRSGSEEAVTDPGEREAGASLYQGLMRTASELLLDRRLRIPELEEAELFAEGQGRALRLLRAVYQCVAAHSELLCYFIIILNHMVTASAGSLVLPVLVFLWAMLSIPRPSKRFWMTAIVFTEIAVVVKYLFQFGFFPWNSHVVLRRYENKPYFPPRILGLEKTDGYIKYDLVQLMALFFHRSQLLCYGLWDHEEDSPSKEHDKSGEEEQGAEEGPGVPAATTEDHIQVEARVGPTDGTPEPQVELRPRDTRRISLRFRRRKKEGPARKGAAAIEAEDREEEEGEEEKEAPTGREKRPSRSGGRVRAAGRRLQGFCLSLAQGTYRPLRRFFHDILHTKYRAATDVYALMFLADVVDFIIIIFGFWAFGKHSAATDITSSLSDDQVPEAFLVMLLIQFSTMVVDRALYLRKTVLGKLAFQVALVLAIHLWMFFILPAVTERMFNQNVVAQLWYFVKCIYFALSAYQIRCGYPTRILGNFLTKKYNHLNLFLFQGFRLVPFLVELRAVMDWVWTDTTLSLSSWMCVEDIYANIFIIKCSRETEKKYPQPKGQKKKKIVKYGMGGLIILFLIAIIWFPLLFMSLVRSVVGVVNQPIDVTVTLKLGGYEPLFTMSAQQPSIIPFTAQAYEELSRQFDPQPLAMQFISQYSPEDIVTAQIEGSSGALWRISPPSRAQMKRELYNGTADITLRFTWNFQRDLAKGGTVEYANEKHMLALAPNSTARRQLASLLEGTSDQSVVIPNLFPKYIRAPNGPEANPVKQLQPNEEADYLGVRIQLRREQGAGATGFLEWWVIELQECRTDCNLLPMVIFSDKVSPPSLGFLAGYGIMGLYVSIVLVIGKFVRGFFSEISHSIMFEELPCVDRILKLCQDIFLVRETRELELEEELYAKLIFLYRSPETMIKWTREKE

EC50: < 1000 nM
Structure (SMILES): Clc1cccc(Cl)c1CSc1nnc(-c2cnccn2)s1 [Yoda1, 2-[5-[[(2,6-Dichlorophenyl)methyl]thio]-1,3,4-thiadiazol-2-yl]-pyrazine]
